Measurements published in patent US20220305037A1, “Treatment of Cancer” (Sumitomo Dainippon Pharma Oncology, Inc., priority 2019, published 2022).

Assays:
[1] = system: patients with newly diagnosed, previously untreated AML; assay: Minimal residual disease (MRD) analysis of bone marrow by flow cytometry in the Phase 1 study; format: in vivo, human
Description: Minimal Residual Disease (MRD) Analysis. MRD was assessed in bone marrow samples at the time of response by a uniform central assay (Hematologics, Inc.) in an exploratory cohort, as has been previously described. Samples were first incubated with antibodies for 20 minutes at room temperature. Red blood cells were then lysed at 37° C. using buffered NH4Cl for 5 minutes, followed by centrifugation at 300 g. Cells were subsequently washed with PBS supplemented with 2% FCS and resuspended in 1% paraformaldehyde. Samples were analyzed on a FACSCalibur™ flow cytometer (Becton Dickinson Biosciences). 200,000 events were analyzed for each sample. Data analysis was performed with WinList™ software (Verity Software House). Two independent reviewers viewed each sample to arrive at a consensus on the data.

[2] = system: patients with newly diagnosed, previously untreated AML
Description: Treatment Plan: Induction. Alvocidib was dose-escalated starting at dose level 1: 20 mg/m^2 30-minute IV bolus followed by 30 mg/m^2 IV infusion over 4 hours on Days 1-3 (FIG. 1). Daunorubicin 60 mg/m^2 IV bolus over 15 minutes was initiated on days 5-7, and cytarabine 100 mg/m^2/day IV continuous 24-hour infusion was administered on Days 5-11. A bone marrow aspirate and biopsy was performed on day 14 (+/−3 days) and patients with residual leukemia (>5% bone marrow blasts and >10% cellularity) were recommended to receive a second induction cycle with alvocidib on days 1-3 (same dose level as induction) followed by daunorubicin 45 mg/m^2/day IV over 15 minutes on days 5 and 6 and cytarabine 100 mg/m^2/day IV continuous infusion over days 5-9 (“5+2”).
Statistical Analysis. Alvocidib dose was escalated using a 3+3 design (FIG. 1). Successive cohorts of patients (3-6 per cohort) were treated with escalated doses until the maximal tolerated dose (MTD) was established. Intra-patient dose escalation was not permitted. Descriptive analysis was performed for the safety and efficacy endpoints. MTD for alvocidib was estimated by the highest alvocidib dose for which the incidence of DLT during Cycle 1 was less than 33% in combination with 7+3. Kaplan-Meier time-to-event analyses were performed on overall survival (OS), relapse-free survival and duration of remission. […]

[3] = system: patients with newly diagnosed, previously untreated AML; assay: Kaplan-Meier time-to-event analyses and clinical outcomes (OS, EFS, RFS, relapse) in the Phase 1 study; format: in vivo, human
Source text: (§1) Statistical Analysis. […] Intra-patient dose escalation was not permitted. […] Database lock was on Apr. 30, 2020.

[4] = system: patients with newly diagnosed, previously untreated AML; assay: Phase 1 dose-escalation study of alvocidib followed by cytarabine/daunorubicin (7+3): response assessment by ELN Guidelines; format: in vivo, human
Description: Methods: Study Population. This was a Phase 1, open-label, multicenter, dose-escalation study of alvocidib followed by cytarabine/daunorubicin (7+3) in patients with AML (NCT03298984). Patients aged 18-65 years with newly diagnosed, previously untreated AML and pathological confirmation of bone marrow (BM) blasts ≥20% were eligible. Key inclusion criteria included: Eastern Cooperative Oncology Group (ECOG) performance status (PS) ≤2, serum creatinine level ≤1.8 mg/dL, alanine aminotransferase (ALT) and aspartate aminotransferase (AST) ≤5 times upper limit of normal (ULN), total bilirubin ≤2.0 mg/dL, and left ventricular ejection fraction (EF) >45%. Patients were excluded if they had previous treatment for AML (with the exception of hydroxyurea), and were diagnosed with acute promyelocytic leukemia (APL-M3) or core-binding factor AML ((CBF-AML: t(8;21); inv(16); t(16;16)). All patients provided written informed consent. This study was conducted as per the Declaration of Helsinki after approval by ethics committee of each participating center.
Treatment Plan: Induction.
Consolidation. Patients who achieved a complete remission (CR) received 2 to 4 cycles of consolidation therapy with high dose cytarabine (HiDAC) 3 gm/m^2 IV every 12 hours on days 1, 3 and 5 upon full hematological recovery (absolute neutrophil count >1×10^−3/L and platelets >1×10^1/L). HiDAC was permitted to be dose reduced to 1.5 gm/m^2 IV every 12 hours on days 1, 3 and 5 in those >60 years. Allogeneic stem cell transplantation was permitted after induction per standard of care but was recommended after at least 1 cycle of HiDAC consolidation in those who achieved CR.
Response Assessments. Response assessment was performed by a bone marrow aspirate and biopsy at the time of full hematologic recovery or by day 50 and day 60 of 1 versus 2 induction cycles, respectively. Response to therapy was assessed by standardized ELN Guidelines. In those who achieved CR and received consolidation therapy, a bone marrow aspirate and biopsy was performed after cycle 2 of HiDAC, after completion of consolidation therapy, and at any suspicion of relapse.
as §1

MDS blasts = assay: MCL-1 dependency assay of MDS blasts after azacitidine pre-treatment; format: cell-based, human; conditions: patient sample MDS1060; MCL-1 dependency cut-off of 40%
Description: CD13, CD33, CD34, CD45, CD3 and CD20 were used as markers to identify MDS blasts, and to perform MCL-1 dependency analyses. MDS blasts were positive for CD13, CD33 and CD34, dim for CD45 and negative for CD3 and CD20.
On day 1 of the MCL-1 dependency assay, 5×10^4-1×10^5 HS-5 feeder cells were plated into a 6-well plate, and allowed to attached overnight. HS-5 feeder cells improve viability of frozen MDS bone marrow mononuclear cells (BMMCs) after thawing. On day 2 of the assay, MDS BMMCs were thawed, and divided into three treatment groups corresponding to treatment with DMSO, treatment with 1 μM azacitidine or treatment with 2.5 μM azacitidine. On day 4, after a 48-hour treatment period, MCL-1 dependency of MDS blasts, lymphocytes and monocytes were separately assessed.

[5] = system: MCL-1 protein levels in blasts; conditions: cited from earlier work

| Structure (SMILES) | MRD-negative among CR patients with ELN adverse-risk disease ([1]; 4/9, flow cytometry and/or institutional standard assessment) [%] | MRD-negative CR in ELN adverse-risk patients ([1]; exploratory cohort, 3 out of 4) [%] | MTD (alvocidib dose) ([2]; IV bolus/IV infusion on Days 1-3, in combination with 7+3) | safety and feasibility of alvocidib administration prior to 7+3 induction ([2]; in vivo) | patients who achieved CR without MRD and remain in CR ([3]; 9 patients) [%] | median OS ([3]; 32 patients, median follow-up 9.2 months) | duration of CR, range ([3]; CR patients relapsed to date) | CR patients relapsed to date ([3]; of the 22 CR patients, 7 patients) [%] | median RFS ([3]; time from CR/CRi up to disease relapse or death) | patients who achieved CR without evidence of MRD and relapsed ([3]; two patients) [%] | differences in response to alvocidib in patients with or without MCL-1 dependence ([4]; MCL-1 dependence threshold priming >30%, exploratory analysis) | patients who received re-induction for residual leukemia on day 14 ([4]; all enrolled, 3 patients, re-induction with alvocidib and 5+2) [%] | CR rate ([4]; genomic class AML with NPM1 mutation (8/10)) [%] | CR among patients who received re-induction therapy ([4]; re-induction with alvocidib and 5+2) | change of MCL-1 dependency status of blasts (MDS blasts) | effect on MCL-1 protein levels in blasts [5] |
| --- | --- | --- | --- | --- | --- | --- | --- | --- | --- | --- | --- | --- | --- | --- | --- | --- |
| CN1CC[C@H](c2c(O)cc(O)c3c(=O)cc(-c4ccccc4Cl)oc23)[C@H](O)C1 [alvocidib, 2-(2-chlorophenyl)-5,7-dihydroxy-8-[(3S,4R)-3-hydroxy-1-methylpiperidin-4-yl]chromen-4-one] | 44 | 75 | (30/60 mg/m^2) | safe, feasible | 82 | not reached | 1.4-13.6 months | 32 | not reached | 18 | No significant differences | 9 | 80 | None | – | – |
| Nc1ncn([C@@H]2O[C@H](CO)[C@@H](O)[C@H]2O)c(=O)n1 [azacitidine] | – | – | – | – | – | – | – | – | – | – | – | – | – | – | rendered MCL-1-independent blasts MCL-1 dependent | reduce MCL-1 protein levels in blasts |
